Columns and labels:
[1] = target: T1, human glucocorticoid receptor (GR) complex (Homo sapiens, UniProt P04150); assay: Glucocorticoid Receptor Competitive Binding Assay (fluorescence polarization, TAMRA-labeled dexamethasone probe); conditions: qualitative statement; competition with TAMRA-labeled dexamethasone
T1 construct: made in house; host or cells: insect expression system (baculovirus lysate)
T1 sequence (P04150 1-777): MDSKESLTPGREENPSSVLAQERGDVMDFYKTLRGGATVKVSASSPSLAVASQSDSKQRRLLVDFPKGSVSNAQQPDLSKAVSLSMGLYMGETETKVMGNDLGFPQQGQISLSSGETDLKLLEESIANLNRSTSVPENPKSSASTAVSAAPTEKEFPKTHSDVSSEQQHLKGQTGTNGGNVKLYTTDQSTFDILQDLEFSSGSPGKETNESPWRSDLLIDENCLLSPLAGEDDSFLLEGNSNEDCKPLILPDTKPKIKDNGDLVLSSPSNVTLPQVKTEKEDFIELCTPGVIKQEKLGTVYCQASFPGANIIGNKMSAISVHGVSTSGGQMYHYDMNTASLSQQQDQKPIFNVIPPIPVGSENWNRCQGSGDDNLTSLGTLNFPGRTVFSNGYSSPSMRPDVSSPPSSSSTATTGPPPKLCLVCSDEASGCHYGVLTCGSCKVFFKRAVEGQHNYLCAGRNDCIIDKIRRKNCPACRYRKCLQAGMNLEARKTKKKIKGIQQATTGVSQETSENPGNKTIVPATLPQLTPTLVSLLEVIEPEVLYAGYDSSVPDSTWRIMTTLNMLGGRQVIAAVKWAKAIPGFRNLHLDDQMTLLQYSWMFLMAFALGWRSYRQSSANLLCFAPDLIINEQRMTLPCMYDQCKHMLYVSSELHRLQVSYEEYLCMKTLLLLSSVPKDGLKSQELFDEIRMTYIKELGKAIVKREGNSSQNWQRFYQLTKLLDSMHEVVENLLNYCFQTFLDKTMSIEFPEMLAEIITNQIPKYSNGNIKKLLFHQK
In short: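 Competition with TAMRA-dexamethasone for a human GR complex expressed in insect cells, read by fluorescence polarization. Buffer was 10 mM TES, 50 mM KCl, 20 mM Na2MoO4, 1.5 mM EDTA, 0.04% CHAPS, 10% glycerol, 1 mM DTT, pH 7.4.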

glucocorticoid receptor = assay: Glucocorticoid Receptor Cell Assays (agonist activity in one or more of the above assays); assay type: cell-based; conditions: qualitative statement; assay not specified
Protocol: B. Glucocorticoid Receptor Cell Assays
1. Induction of Aromatase in Fibroblasts (Cell Assay for Transactivation)
Dexamethasone, a synthetic ligand to the glucocorticoid receptor (GR), induces expression of aromatase in human foreskin fibroblast cells. The activity of aromatase is measured by the conversion of testosterone to estradiol in culture media.
On the day of the experiment, the media in the wells is replaced with fresh media. Cells are treated with test compounds to final concentrations of 10^−5 M to 10^−8 M, and testosterone to a final concentration of 300 ng/mL. Each well has a total volume of 100 μL. Samples are made in duplicates. Control wells include: (a) wells that receive testosterone only, and (b) wells that receive testosterone plus 2 μM of dexamethasone to provide maximum induction of aromatase. Plates are incubated at 37° C. overnight (15 to 18 hours), and supernatants are harvested at the end of incubation. […] The amount of estradiol is inversely proportional to the ELISA signals in each well. The extent of aromatase induction by test compounds is expressed as a relative percentage to dexamethasone. EC50 values of test compounds are derived by non-linear curve fitting.
2. Inhibition of IL-6 Production in Fibroblasts (Cell Assay for Transrepression)
Human foreskin fibroblast cells produce IL-6 in response to stimulation by pro-inflammatory cytokine IL-1.
On the next day, media in the wells is replaced with fresh media. Cells are treated with IL-1 (rhIL-1α, R&D Systems Cat. No. 200-LA) to a final concentration of 1 ng/mL, and with test compounds to final concentrations of 10^−5 M to 10^−8 M, in a total volume of 200 μL per well. Samples are done in duplicates. […] Positive control wells receive IL-1 only and represent maximum (or 100%) amount of IL-6 production. Plates are incubated at 37° C. overnight (15 to 18 hours), and supernatants are harvested at the end of incubation. IL-6 levels in the supernatants are determined by the ELISA kits for IL-6 (MedSystems Diagnostics GmbH, Vienna, Austria, Cat. No. BMS213TEN) according to manufacture's instructions. The extent of inhibition of IL-6 by test compounds is expressed in percentage relative to positive controls. IC50 values of test compounds are derived by non-linear curve fitting.
Evaluation of agonist or antagonist activity of compounds binding to the glucocorticoid receptor may be determined by any of the assays.
3. Modulation of Tyrosine Aminotransferase (TAT) Induction in Rat Hepatoma Cells
Testing of compounds for agonist or antagonist activity in induction of tyrosine aminotransferase (TAT) in rat hepatoma cells.
H4-II-E-C3 cells were incubated overnight in 96 well plates (20,000 cells/100 μL/well) in MEM medium containing 10% heat inactivated FBS and 1% nonessential amino acids. On the next day, cells were stimulated with the indicated concentrations of dexamethasone or test compound (dissolved in DMSO, final DMSO concentration 0.2%) for 18 hours. Control cells were treated with 0.2% DMSO. After 18 hours, the cells were lysed in a buffer containing 0.1% Triton X-100 and the TAT activity was measured in a photometric assay using tyrosine and alpha-ketoglutarate as substrates.
For measuring antagonist activity, the hepatoma cells were pre-stimulated by addition of dexamethasone (concentration ranges from 3×10^−9 M to 3×10^−8 M) shortly before the test compound was applied to the cells.
4. Modulation of MMTV-Luc Induction in HeLa Cells
Testing of compounds for agonist or antagonist activity in stimulation of MMTV-(mouse mammary tumor virus) promoter in HeLa cells.
Cells were cultured overnight in DMEM medium without phenol red, supplemented with 3% CCS (charcoal treated calf serum) and then transferred to 96 well plates (15,000 cells/100 μL/well).

Structure (SMILES) | activity in the GR binding assay [1] | activity as agonists of the glucocorticoid receptor function in one or more of the above assays (glucocorticoid receptor)
CC(C)(CC(O)(Cc1cc2cc(C#N)ccc2[nH]1)C(F)(F)F)c1ccccc1 (stereo not shown) [2-(2-Hydroxy-4-methyl-4-phenyl-2-trifluoromethylpentyl)-1H-indole-5-carbonitrile] | potent activity | potent agonists
CC(C)(CC(O)(Cc1ccnc2ccccc12)C(F)(F)F)c1ccccc1O (stereo not shown) [2-(4,4,4-Trifluoro-3-hydroxy-1,1-dimethyl-3-quinolin-4-ylmethylbutyl)phenol] | potent activity | potent agonists
COc1ccc(F)cc1C(C)(C)CC(O)(Cc1cc2ccncc2[nH]1)C1CC1 (stereo not shown) [2-Cyclopropyl-4-(5-fluoro-2-methoxyphenyl)-4-methyl-1-(1H-pyrrolo[2,3-c]pyridin-2-yl)pentan-2-ol] | potent activity | agonists
Cc1cc(C)c2[nH]c(CC(O)(CC(C)(C)c3cc(F)ccc3O)C(F)(F)F)nc2c1 (stereo not shown) [2-[3-(5,7-Dimethyl-1H-benzoimidazol-2-ylmethyl)-4,4,4-trifluoro-3-hydroxy-1,1-dimethylbutyl]-4-fluorophenol] | potent activity | potent agonists
COc1cc(F)ccc1C(C)(C)CC(O)(Cc1[nH]c2ccccc2c1C#N)C(F)(F)F (stereo not shown) [2-[4-(4-Fluoro-2-methoxyphenyl)-2-hydroxy-4-methyl-2-trifluoromethyl-pentyl]-1H-indole-3-carbonitrile] | potent activity | potent agonists
CC(C)(CC(O)(Cc1[nH]c2ccccc2c1C#N)C(F)(F)F)c1cc(Br)cc2c1OCC2 (stereo not shown) [2-[4-(5-Bromo-2,3-dihydrobenzofuran-7-yl)-2-hydroxy-4-methyl-2-trifluoromethylpentyl]-1H-indole-3-carbonitrile] | potent activity | potent agonists
CC(C)(CC(O)(Cc1[nH]c2ccccc2c1C#N)C(F)(F)F)c1cc(F)cc2c1OCC2 (stereo not shown) [2-[4-(5-Fluoro-2,3-dihydrobenzofuran-7-yl)-2-hydroxy-4-methyl-2-trifluoromethylpentyl]-1H-indole-3-carbonitrile] | potent activity | potent agonists
COc1ccc(F)cc1C(C)(C)CC(O)(Cc1[nH]c2ccccc2c1C#N)C(F)(F)F (stereo not shown) [2-[4-(5-Fluoro-2-methoxyphenyl)-2-hydroxy-4-methyl-2-trifluoromethylpentyl]-1H-indole-3-carbonitrile] | potent activity | potent agonists

The next lines start with results.

activity in the GR binding assay [1] | Structure (SMILES) | activity as agonists of the glucocorticoid receptor function in one or more of the above assays (glucocorticoid receptor)
potent activity | COc1cccc(C(C)(C)CC(O)(Cc2cc3c(C)cc(C#N)cc3[nH]2)C(F)(F)F)c1 (stereo not shown) [2-[2-Hydroxy-4-(3-methoxyphenyl)-4-methyl-2-trifluoromethylpentyl]-4-methyl-1H-indole-6-carbonitrile] | potent agonists
potent activity | Cc1cc(C#N)cc2[nH]c(CC(O)(CC(C)(C)c3cccc4c3OCC4)C(F)(F)F)cc12 (stereo not shown) [2-[4-(2,3-Dihydrobenzofuran-7-yl)-2-hydroxy-4-methyl-2-trifluoromethylpentyl]-4-methyl-1H-indole-6-carbonitrile] | potent agonists
potent activity | Cc1cc(C#N)cc2[nH]c(CC(O)(CC(C)(C)c3cccc(F)c3)C(F)(F)F)cc12 (stereo not shown) [2-[4-(3-Fluorophenyl)-2-hydroxy-4-methyl-2-trifluoromethylpentyl]-4-methyl-1H-indole-6-carbonitrile] | potent agonists
potent activity | COc1cc(F)ccc1C(C)(C)CC(O)(Cc1cc2cc(C#N)ccc2[nH]1)C(F)(F)F (stereo not shown) [2-[4-(4-Fluoro-2-methoxyphenyl)-2-hydroxy-4-methyl-2-trifluoromethylpentyl]-1H-indole-5-carbonitrile] | potent agonists
potent activity | CC(C)(CC(O)(Cc1cc2cc(C#N)ccc2[nH]1)C(F)(F)F)c1ccc(F)cc1 (stereo not shown) [2-[4-(4-Fluorophenyl)-2-hydroxy-4-methyl-2-trifluoromethylpentyl]-1H-indole-5-carbonitrile] | potent agonists
potent activity | Cc1cc(C#N)cc2[nH]c(CC(O)(CC(C)(C)c3ccc(F)cc3)C(F)(F)F)cc12 (stereo not shown) [2-[4-(4-Fluorophenyl)-2-hydroxy-4-methyl-2-trifluoromethylpentyl]-4-methyl-1H-indole-6-carbonitrile] | potent agonists
potent activity | Cc1cc(C#N)cc2[nH]c(CC(O)(CC(C)(C)c3cc(F)ccc3O)C(F)(F)F)cc12 (stereo not shown) [2-[4-(5-Fluoro-2-hydroxyphenyl)-2-hydroxy-4-methyl-2-trifluoromethylpentyl]-4-methyl-1H-indole-6-carbonitrile] | potent agonists
potent activity | COc1ccc(F)cc1C(C)(C)CC(O)(Cc1cc2cc(C#N)ccc2[nH]1)C(F)(F)F (stereo not shown) [2-[4-(5-Fluoro-2-methoxyphenyl)-2-hydroxy-4-methyl-2-trifluoromethylpentyl]-1H-indole-5-carbonitrile] | potent agonists
potent activity | COc1ccc(F)cc1C(C)(C)CC(O)(Cc1cc2c(C)cc(C#N)cc2[nH]1)C(F)(F)F (stereo not shown) [2-[4-(5-Fluoro-2-methoxyphenyl)-2-hydroxy-4-methyl-2-trifluoromethylpentyl]-4-methyl-1H-indole-6-carbonitrile] | potent agonists

From US7553966B2, “Glucocorticoid mimetics, methods of making them, pharmaceutical compositions, and uses thereof” (Boehringer Ingelheim Pharmaceuticals, Inc., priority 2002, dated 2009)
